Among the data in PubChem BioAssay AID1259407 (Chemical Carcinogenesis Research Information System (CCRIS), 2018) are mutagenic call values, retold here.

The source made the active and inactive calls. The rule behind the calls is not given here.

This data set concerns CCRIS mutagenicity, Ames/micronucleus/aberration tests. Put plainly: CCRIS mutagenicity studies.
Where [1] appears, read: Test System: AMES SALMONELLA TYPHIMURIUM, Strain/Indicator: TA100, Metabolic Activation: NONE, Method: STANDARD PLATE.
The mark [2] stands for this setting: Test System: AMES SALMONELLA TYPHIMURIUM, Strain/Indicator: TA1535, Metabolic Activation: NONE, Method: STANDARD PLATE.
Where [3] appears, read: Test System: AMES SALMONELLA TYPHIMURIUM, Strain/Indicator: TA100, Metabolic Activation: RAT, LIVER, S-9, AROCLOR 1254, Method: PREINCUBATION
Where [4] appears, read: Test System: AMES SALMONELLA TYPHIMURIUM, Strain/Indicator: TA98, Metabolic Activation: NONE, Method: STANDARD PLATE.
Setting [5] is: Test System: AMES SALMONELLA TYPHIMURIUM, Strain/Indicator: TA98, Metabolic Activation: NONE, Method: PREINCUBATION
[6] abbreviates: Test System: AMES SALMONELLA TYPHIMURIUM, Strain/Indicator: TA100, Metabolic Activation: NONE, Method: PREINCUBATION

On to `c1ccc2c(OCC3CO3)cccc2c1` (configuration not stated), for which the mutagenic call was “active; positive” under setting [1]; “active; positive” (Test System: AMES SALMONELLA TYPHIMURIUM, Strain/Indicator: TA104, Metabolic Activation: NONE, Method: STANDARD PLATE); “active; positive” under setting [2]; “active; positive” (Test System: AMES SALMONELLA TYPHIMURIUM, Strain/Indicator: TA4001, Metabolic Activation: NONE, Method: STANDARD PLATE); “active; positive” (Test System: AMES SALMONELLA TYPHIMURIUM, Strain/Indicator: TA4006, Metabolic Activation: NONE, Method: STANDARD PLATE).
`NC[N+](=O)[O-]`: the mutagenic call by setting is: under setting [3], “inactive; negative”; (Test System: AMES SALMONELLA TYPHIMURIUM, Strain/Indicator: TA1535, Metabolic Activation: RAT, LIVER, S-9, AROCLOR 1254, Method: PREINCUBATION) “inactive; negative”.
With `O=Nc1ccc2ccc3c4c(cc5ccc1c2c53)CCCC4`, the mutagenic call under setting [4] was “active; positive”.
As for `c1ccc2c(c1)oc1ccccc12`, the mutagenic call by setting is: (End Point: IN VITRO CHROMOSOMAL ABERRATIONS, Test System: CHINESE HAMSTER OVARY CELLS, Metabolic Activation: NONE) “inactive; negative”; (End Point: IN VITRO CHROMOSOMAL ABERRATIONS, Test System: CHINESE HAMSTER OVARY CELLS, Metabolic Activation: RAT, LIVER, S-9, AROCLOR 1254) “inactive; negative”; (Test System: AMES SALMONELLA TYPHIMURIUM, Strain/Indicator: TA98, Metabolic Activation: HAMSTER LIVER S-9, AROCLOR 1254, Method: STANDARD PLATE) “inactive; negative”; under setting [4], “inactive; negative”; (Test System: AMES SALMONELLA TYPHIMURIUM, Strain/Indicator: TA98, Metabolic Activation: RAT LIVER S-9, AROCLOR 1254, Method: STANDARD PLATE) “inactive; negative”; (Test System: AMES SALMONELLA TYPHIMURIUM, Strain/Indicator: TA98, Metabolic Activation: RAT, LIVER, S-9, PHENOBARBITAL AND NAPHTHOFLAVONE, Method: STANDARD PLATE) “inactive; negative”. For the same compound, the mutagenic call by setting is: (Test System: AMES SALMONELLA TYPHIMURIUM, Strain/Indicator: TA98, Metabolic Activation: S-9, PHENOBARBITAL AND 5,6-BENZOFLAVONE, Method: STANDARD PLATE) “inactive; negative”; (Test System: AMES SALMONELLA TYPHIMURIUM, Strain/Indicator: TA100, Metabolic Activation: HAMSTER LIVER S-9, AROCLOR 1254, Method: STANDARD PLATE) “inactive; negative”; under setting [1], “inactive; negative”; (Test System: AMES SALMONELLA TYPHIMURIUM, Strain/Indicator: TA100, Metabolic Activation: RAT LIVER S-9, AROCLOR 1254, Method: STANDARD PLATE) “inactive; negative”; (Test System: AMES SALMONELLA TYPHIMURIUM, Strain/Indicator: TA100, Metabolic Activation: RAT, LIVER, S-9, PHENOBARBITAL AND NAPHTHOFLAVONE, Method: STANDARD PLATE) “inactive; negative”; (Test System: AMES SALMONELLA TYPHIMURIUM, Strain/Indicator: TA100, Metabolic Activation: S-9, PHENOBARBITAL AND 5,6-BENZOFLAVONE, Method: STANDARD PLATE) “inactive; negative”.
For the compound `[Cl][Sn]([Cl])([Cl])[c]1ccccc1`, the mutagenic call is “inactive; negative” (Test System: AMES SALMONELLA TYPHIMURIUM, Strain/Indicator: TA98, Metabolic Activation: NONE, Method: SUSPENSION/PLATE) and “inactive; negative” (Test System: AMES SALMONELLA TYPHIMURIUM, Strain/Indicator: TA100, Metabolic Activation: NONE, Method: SUSPENSION/PLATE).
For `CC(C)N(CC(O)COc1cccc2ccccc12)N=O` (configuration not stated), the mutagenic call (Test System: UDS HUMAN HEPATOCYTES, Strain/Indicator: THY INCORP, Metabolic Activation: NONE, Method: AUTORADIOGRAPHY) was “active; positive” and the mutagenic call (Test System: UDS RAT HEPATOCYTES, Strain/Indicator: THY INCORP, Metabolic Activation: NONE, Method: AUTORADIOGRAPHY) was “active; positive”.
For the compound `O=C(OCc1ccc(Cl)cc1Cl)c1cccc2cccnc12`, the mutagenic call reads like this: under setting [4], “inactive; negative”; (Test System: AMES SALMONELLA TYPHIMURIUM, Strain/Indicator: TA98, Metabolic Activation: RAT, LIVER, S-9, AROCLOR 1254, Method: STANDARD PLATE) “inactive; negative”; under setting [1], “inactive; negative”; (Test System: AMES SALMONELLA TYPHIMURIUM, Strain/Indicator: TA100, Metabolic Activation: RAT, LIVER, S-9, AROCLOR 1254, Method: STANDARD PLATE) “inactive; negative”; under setting [2], “inactive; negative”; (Test System: AMES SALMONELLA TYPHIMURIUM, Strain/Indicator: TA1535, Metabolic Activation: RAT, LIVER, S-9, AROCLOR 1254, Method: STANDARD PLATE) “inactive; negative”. Further, the mutagenic call was “inactive; negative” (Test System: AMES SALMONELLA TYPHIMURIUM, Strain/Indicator: TA1537, Metabolic Activation: NONE, Method: STANDARD PLATE) and “inactive; negative” (Test System: AMES SALMONELLA TYPHIMURIUM, Strain/Indicator: TA1537, Metabolic Activation: RAT, LIVER, S-9, AROCLOR 1254, Method: STANDARD PLATE).
Take `Cc1ccc(Cl)cc1[N+](=O)[O-]`: the mutagenic call by setting is: under setting [5], “inactive; negative”; (Test System: AMES SALMONELLA TYPHIMURIUM, Strain/Indicator: TA98, Metabolic Activation: RAT, LIVER, S-9, KANECHLOR 500, Method: PREINCUBATION) “inactive; negative”; under setting [6], “inactive; negative”; (Test System: AMES SALMONELLA TYPHIMURIUM, Strain/Indicator: TA100, Metabolic Activation: RAT, LIVER, S-9, KANECHLOR 500, Method: PREINCUBATION) “inactive; negative”.
On to `N#C/C(=C/C=C/c1ccccc1)c1ccccc1Cl`, for which the mutagenic call under setting [1] is “active; positive”.
In the case of `CCOCc1c(O)cc2c(c1O)C(=O)c1ccccc1C2=O`, the mutagenic call is, setting by setting: (Test System: AMES SALMONELLA TYPHIMURIUM, Strain/Indicator: TA97, Metabolic Activation: NONE, Method: PREINCUBATION) “inactive; negative”; (Test System: AMES SALMONELLA TYPHIMURIUM, Strain/Indicator: TA97, Metabolic Activation: RAT, LIVER, S-9, AROCLOR 1254, Method: PREINCUBATION) “active; positive”; under setting [5], “active; positive”; (Test System: AMES SALMONELLA TYPHIMURIUM, Strain/Indicator: TA98, Metabolic Activation: RAT, LIVER, S-9, AROCLOR 1254, Method: PREINCUBATION) “active; positive”; (Test System: AMES SALMONELLA TYPHIMURIUM, Strain/Indicator: TA98, Metabolic Activation: RAT, LIVER, S-9, PCB, Method: PREINCUBATION) “active; positive”; under setting [6], “active; positive”. For the same compound, the mutagenic call reads like this: under setting [3], “active; positive”; (Test System: AMES SALMONELLA TYPHIMURIUM, Strain/Indicator: TA100, Metabolic Activation: RAT, LIVER, S-9, PCB, Method: PREINCUBATION) “active; positive”; (Test System: AMES SALMONELLA TYPHIMURIUM, Strain/Indicator: TA102, Metabolic Activation: NONE, Method: PREINCUBATION) “active; positive”; (Test System: AMES SALMONELLA TYPHIMURIUM, Strain/Indicator: TA102, Metabolic Activation: RAT, LIVER, S-9, Method: PREINCUBATION) “active; positive”; (Test System: AMES SALMONELLA TYPHIMURIUM, Strain/Indicator: TA1537, Metabolic Activation: NONE, Method: PREINCUBATION) “active; positive”; (Test System: AMES SALMONELLA TYPHIMURIUM, Strain/Indicator: TA1537, Metabolic Activation: RAT, LIVER, S-9, AROCLOR 1254, Method: PREINCUBATION) “active; positive”. Further, the mutagenic call is, setting by setting: (Test System: AMES SALMONELLA TYPHIMURIUM, Strain/Indicator: TA1537, Metabolic Activation: RAT, LIVER, S-9, Method: PREINCUBATION) “active; positive”; (Test System: CHINESE HAMSTER V-79, Strain/Indicator: V-79/8-AZAGUANINE, Metabolic Activation: NONE, Method: STANDARD PLATE) “inactive; negative”; (Test System: CHINESE HAMSTER V-79, Strain/Indicator: V-79/8-AZAGUANINE, Metabolic Activation: PRIMARY RAT HEPATOCYTES, Method: STANDARD PLATE) “active; positive”.
